# In patent publication US4912116A, “Propiophenone derivatives for treatment of pollakiuria (frequency urination)” (Hokuriku Pharmaceutical Co., Ltd., priority 1986, dated 1990):
# Read-outs that look alike come from different tables or passages of the source.
# Key:
# [1] = test system: cystometrogram (time to micturition); assay: Effect on the cystometrogram (pollakiuria model rats induced by hypogastric nerve transection); format: in vivo, Male Wister rats; details: i.v., mean ± S.E., saline -6.0 ± 31.8
# Experimental: (§1) statistical analysis: Each data of Experiment 1-6 represents the mean±S.E. statistical analysis of the data was performed using student's t-test.
# Male Wister rats weighing 300 g were incised midline of the abdomen, and bilateral hypogastric nerves were transected.
# Two days after hypogastric nerve transection, the rats were anesthetized with urethane (500 mg/kg, i.p.) and alpha-chloralose (50 mg/kg, i.p.) and fixed on their back.
# Then, through a midline incision of the abdomen, the urinary bladder was exposed, provided with a small incision, a polyethylene tube inserted, and ureters were cut.
# Through the polyethylene tube, saline was infused using a continuous infusion pump. On the other hand, the polyethylene tube was connected to a pressure transducer. Intravesical pressure was recorded on a recorder.
# The drug was administrated through a cannula inserted into the left jugular vein at 30 sec before saline infusion.
# Effect of drug was represented as delayed time to micturition.
# [2] = test system: micturition reflex (rhythmic bladder contractions); assay: Inhibition of micturition reflex (rhythmic bladder contractions) in anesthetized rats; format: in vivo, male wister rats; details: for Disappearance time (of bladder contractions): i.v., 3 rats, mean ± S.E.
# Experimental: as §1
# According to the method described by Morikawa et al. (Folia phamacol. japon.: 88,355 (1986), male wister rats weighing about 300 g (in case of intraduodenal administration, fasted 18-20 hours) were anesthetized with urethane (500 mg/kg, i.p.) and alpha-chloralose (50 mg/kg, i.p.), and fixed on their back.
# Then, through a midline incision of the abdomen, the urinary bladder was exposed, provided with a small incision, and a balloon (capacity about 1 ml) was inserted into the bladder dome.
# (§2) The balloon was connected to a pressure transducer and variations of inside pressure were recorded on a recorder.
# Micturition reflex was elicited by elevating balloon pressure 10-20 cm H2 O.
# In case of intravenous administration, the drug was administrated through a cannula inserted into the left jugular vein and, in case of intraduodenum administration, the drug was administrated through a cannula into the duodenum from outside the stomach.
# In case of intravenous administration, the drug was evaluated by the dissappearance time of bladder contractions caused by micturition reflex.
# In case of intraduodenal administration, the sum total of amplitude of bladder contractions caused by the micturition reflex was calculated during each five minutes at 5 min. before and 15, 30, 45, and 60 min. after the administration.
# Then, the maximum inhibition rate was determined from one of the above judgment times compared with that of before the administration, and the dose which inhibited 50 percent of the sum total of amplitude of bladder contractions during five minutes (ED 50 value), was calculated from the graph.
# [3] = test system: micturition reflex (rhythmic bladder contractions); assay: Inhibition of micturition reflex (rhythmic bladder contractions) in unanesthetized, gallamine-immobilized rats; format: in vivo, Male Wister rats; details: for Disappearance time (of bladder contractions): i.v., 4 rats, mean ± S.E., saline 9.0 ± 1.8; for Inhibition Rate: i.d., 15 min after administration, 0.5% CMC 11.9 ± 7.9
# Experimental: as §1
# Male Wister rats weighing about 300 g (in case of intraduodenal administration, fasted more than 15 hours) were anesthetized with ether and immobilized with gallamine (5 mg/kg, i.v.) and fixed on their back. As soon as that procedure was finished anesthesia was discontinuted.
# In the experiment, infusion of gallamine, 13 mg/kg/hr, i.v. (in case of intraduodenum administration, 10 mg/kg/hr, i.v.) was continuted, and artificial respiration was performed (90 times/min, 3 ml air/time).
# Then, through a midline incision of the abdomen, the urinary bladder was exposed; a small incision provided therein, and a balloon (capacity about 1 ml) was inserted into the bladder dome.
# as §2
# Micturition reflex was elicited by raising the balloon pressure 10-20 cm H2 O.
# In case of intravenous administration, the drug was administrated through a cannula inserted into the left jugular vein, and in case of intraduodenal administration the drug was administrated through a cannula inserted into the duodenum from outside the stomach.
# In case of intravenous administration, the effect of the drug was represented by the disappearance time of bladder contractions caused by micturition reflex.
# In case of intraduodenal administration, the sum total of amplitude of bladder contractions caused by micturition reflex was calculated during each five minutes at 5 min before and 15, 30, 45, 60, 75, 90, 105 and 120 min after the administration.
# Then, inhibition rate was calculated by the sum total of amplitude of bladder contractions at each point compared with that before the administration.
# [4] = test system: cystometrogram (time to micturition); assay: Effects on the cystometrogram (Cat); format: in vivo, Mongrel adult cats; details: cats; for ED (2 min delay of micturition): Felis catus, read-out: ED2 (dose which delayed time to micturition by 2 min.)
# Experimental: as §1
# Mongrel adult cats weighing about 3 kg (in case of intraduodenal administration, fasted 24 hours) were anesthetized with urethane (500 mg/kg, i.p.) and alpha-chloralose (50 mg/kg, i.p.) and fixed on their back.
# After midline incision of the abdomen, the ureters were ligated and polyethylene tubes were inserted into the kidney side and urinary bladder side, urine was led out of the body from the kidney side, and warm saline was infused using a continuous infusion pump from the urinary bladder side.
# Then, a catheter was inserted into the bladder dome and connected to a pressure transducer Intravesical pressure was recorded on a recorder.
# The infusion rate of saline was changed (0.7-6.6 ml/min) so as to induce the time to micturition from saline infusion at about five minutes.
# Each of delayed time of micturition was evaluated. In case of intravenous administration, the drug was administered through a cannula inserted into the right femoral vein at 30 seconds before saline infusion.
# In case of intraduodenal administration, the drug was administrated through a tube inserted into the duodenum by way of mouth at the time of saline infusion, and the time to micturition was measured at 15 min. intervals until 90 min.
# [5] = test system: cystometrogram (time to micturition); assay: Effects on the cystometrogram (in anesthetized rat); format: in vivo, Male Wister rats; details: i.v., 6 rats, mean ± S.E., saline -6.0 ± 49.8
# Experimental: as §1
# Male Wister rats weighing about 300 g were anesthetized with urethane (500 mg/kg, i.p.) and α-chloralose (50 mg/kg, i.p.) and fixed on their back.
# Then, through a midline incision of the abdomen, the urinary bladder was exposed, provided with a small incision, a polyethylene tube was inserted into the bladder dome, and ureters were cut.
# Then, through the polyethylene tube, saline was infused using a continuous infusion pump. On the other hand, the polyethylene tube was connected to a pressure transducer. Intravesical pressure was recorded on a recorder.
# The drug was administrated through a cannula inserted into the left jugular vein at 30 sec before saline infusion. Effect of the drug was represented by delayed time to micturition.
compound,measurement,setting,value
CCc1ccc(C(=O)C(C)CN2CCCC2)cc1 (stereo not drawn) [Compound 1],Delayed time of micturition,"[1]; 1 mg/kg, 5 rats",91.8 ± 47.4 s
same,Delayed time of micturition,"[1]; 4 mg/kg, 5 rats",179.4 ± 111.0 s
same,Delayed time of micturition,"[1]; 8 mg/kg, 6 rats, ** P < 0.01 vs control",449.4 ± 65.4 s
same,Disappearance time (of bladder contractions),[2]; 1 mg/kg,1.1 ± 1.1 min
same,Disappearance time (of bladder contractions),[2]; 2 mg/kg,2.3 ± 0.5 min
same,Disappearance time (of bladder contractions),[2]; 4 mg/kg,7.1 ± 2.8 min
same,ED (3 min disappearance of contractions),"[2]; Rattus norvegicus, iv, read-out: ED3 (dose at which rhythmic bladder contractions disappeared in three (3) minutes)",2.2 mg/kg
same,ED50,"[2]; Rattus norvegicus, intraduodenal administration, read-out: ED50 (dose which inhibited 50 percent of the sum total of amplitude of bladder contractions during five minutes)",14.3 mg/kg
same,Disappearance time (of bladder contractions),[3]; 4 mg/kg,52.8 ± 23.4 min
same,Disappearance time (of bladder contractions),"[3]; 8 mg/kg, * p < 0.05 vs control",249.0 ± 45.0 min
same,Inhibition Rate,"[3]; 12.5 mg/kg, * p < 0.05",36.1 ± 4.4%
same,Inhibition Rate,"[3]; 25 mg/kg, ** p < 0.01",53.8 ± 6.9%
same,Inhibition Rate,"[3]; 50 mg/kg, ** p < 0.01",87.9 ± 5.1%
same,Delayed time to micturition,"[4]; 1 mg/kg, i.v., mean ± S.E., saline 6.6 ± 10.2",-19.2 ± 6.6 s
same,Delayed time to micturition,"[4]; 4 mg/kg, i.v., mean ± S.E., saline 6.6 ± 10.2",70.8 ± 27.0 s
same,Delayed time to micturition,"[4]; 8 mg/kg, i.v., mean ± S.E., saline 6.6 ± 10.2",170.4 ± 48.0 s
same,Delayed time to micturition,"[4]; 12.5 mg/kg, i.d., after 30 min., water 22.2 ± 16.2",49.8 ± 8.4 s
same,Delayed time to micturition,"[4]; 25.0 mg/kg, i.d., after 30 min., ** p < 0.01 vs control, water 22.2 ± 16.2",105.0 ± 10.8 s
same,Delayed time to micturition,"[4]; 50.0 mg/kg, i.d., after 30 min., water 22.2 ± 16.2",128.4 ± 37.8 s
same,ED (2 min delay of micturition),"[4]; intraduodenal, 0.5 h, i.d., after 30 min.",39 mg/kg
same,ED (2 min delay of micturition),"[4]; iv, 2 min, i.v.",5.6 mg/kg
same,Delayed time of micturition,[5]; 1 mg/kg,52.8 ± 50.4 s
same,Delayed time of micturition,[5]; 4 mg/kg,102.0 ± 32.4 s
same,Delayed time of micturition,"[5]; 8 mg/kg, ** P < 0.01 vs control",200.4 ± 60.6 s
